This note sets out measurements from patent publication US5451522A, “Genes encoding and method of expressing an enzyme: phthalyl amidase” (priority 1994, dated 1995).

Entries after “also recorded” stand apart in the source; their conditions may differ. Like-named read-outs stand apart in the source and are kept apart here.

This test deals with T1, phthalyl amidase (Xanthobacter agilis, UniProt P0C2Y0).
T1 construct: 42-aa signal peptide removed
Description: Influence of effectors and organic solvents on enzyme activity. It counts as biochemical. To be noted: for remaining activity at 1 % / remaining activity at 5 % / remaining activity at 10 %: 20 min, read-out: % Residual enzyme activity. The method, then: A typical reaction mixture consisted of 1 ml total volume and contained 0.1 mM III, 0.1 μM phthalyl amidase in 50 mM potassium phosphate buffer (pH 5.5-9.0) at 32° C. for 20 minutes. The reactions were stopped by the addition of 1 ml methanol. After removal of precipitate by centrifugation, an aliquot of the supernatant fraction (typically 30 μ) was monitored for the beta-lactam nucleus and phthalic acid by HPLC using a Zorbax C8 column (0.46×15 cm; MacMod Analytical Inc., Chadds Ford, Pa.). The two reaction products were eluted by a mobile phase constructed as continuous mixed gradients from (a) 1% ACN (acetonitrile)/0.2% TFA (trifluoroacetic acid) and (b) 80% ACN/0.2% TFA as follows: 1) 0% (b), 3 min; 2) 0-50% (b), 0.5 min; 3) 50-100% (b), 3 min; 4) 100% (b), 2.5 min; 5) 100-0% (b), 0.1 min; and 6) 0% (b), 5 min.
The effect of various agents on the enzymatic activity of phthalyl amidase was determined using standard conditions (see Example 5). All agents were tested at 1 mM final concentration unless otherwise indicated.

Setting [1] is: agent at 1 mM final concentration, read-out: % of Control Activity.
The mark [2] stands for this setting: 1 mM unless otherwise indicated, iodoacetic acid 10 mM.
The mark [3] stands for this setting: agent at 1 mM final concentration.
Setting [4] is: read-out: % of Control Activity.

T1 sequence (P0C2Y0 2-453): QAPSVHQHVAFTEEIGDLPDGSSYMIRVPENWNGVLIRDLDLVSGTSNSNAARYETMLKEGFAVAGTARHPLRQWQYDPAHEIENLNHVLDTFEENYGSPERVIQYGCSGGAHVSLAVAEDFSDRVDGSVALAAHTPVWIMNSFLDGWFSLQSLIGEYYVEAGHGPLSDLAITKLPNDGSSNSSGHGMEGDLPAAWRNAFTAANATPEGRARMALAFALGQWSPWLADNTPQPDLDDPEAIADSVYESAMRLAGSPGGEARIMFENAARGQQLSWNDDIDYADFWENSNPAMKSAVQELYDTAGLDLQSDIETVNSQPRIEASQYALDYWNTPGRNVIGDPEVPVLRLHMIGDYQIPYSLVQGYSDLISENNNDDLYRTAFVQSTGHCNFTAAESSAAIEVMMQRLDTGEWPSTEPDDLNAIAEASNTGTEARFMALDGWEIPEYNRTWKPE

Turning to `OCCS` [Mercaptoethanol], under setting [1], the remaining activity at 1000 µM worked out at 105%.
In the case of `O=C(O)c1cc[c]([Hg][OH])cc1` [p-HMB, parahydroxy mercuric benzoate], the “effect on enzyme activity (in words)” value under setting [2] is recorded as “significantly reduced; also recorded: significantly inhibited”. For the same molecule, the “% of Control Activity” value under setting [3] was determined as 65%.
Regarding `[Cl][Cu][Cl]` [CuCl2], the “effect on enzyme activity (in words)” value (1 mM unless otherwise indicated, iodoacetic acid 10 mM, listed as Cu^++) was “significantly inhibited” and the “effect on enzyme activity (in words)” value (1 mM unless otherwise indicated, iodoacetic acid 10 mM, listed as copper ions) is “significantly reduced”. Moreover, the “% of Control Activity” value under setting [3] came out at 36%.
As to `O=C(O)CI` [Iodoacetate], the “effect on enzyme activity (in words)” value was “significantly reduced; also recorded: significantly inhibited”. Under setting [4], the remaining activity at 1000 µM was found to be 91% and the remaining activity at 10000 µM amounted to 46%.
`OCC(O)CO` [Glycerol]: the remaining activity at 1 % (solvent 1.0%) was determined as 100%. Moreover, the remaining activity at 5 % (solvent 5.0%) was 94%. Further, for the setting “solvent 10.0%”, the remaining activity at 10 % came out at 85% and the “% Residual enzyme activity” value is reported as “least amount of inhibition”.
With `[Ca+2].[Cl-].[Cl-]` [CaCl2], under setting [3], the “% of Control Activity” value turned out to be 89%.
Take `O[C@H](CS)[C@H](O)CS` (racemic) [DTT, dithiothreitol]: the remaining activity at 1000 µM under setting [1] amounted to 100%.
`CCO` [Ethanol]: the remaining activity at 1 % stood at 99%, the remaining activity at 5 % amounted to 85% and the remaining activity at 10 % was 45%.
As for `[Cl-].[K+]` [KCl], under setting [3], the “% of Control Activity” value stood at 100%.
For `Cc1cc2nc3c(=O)[nH]c(=O)nc-3n(C[C@H](O)[C@H](O)[C@H](O)COP(=O)(O)OP(=O)(O)OC[C@H]3O[C@@H](n4cnc5c(N)ncnc54)[C@H](O)[C@@H]3O)c2cc1C` [FAD, flavin adenine dinucleotide], the remaining activity at 1000 µM under setting [1] came to 101%.
`Nc1ncnc2c1ncn2[C@@H]1O[C@H](COP(=O)(O)OP(=O)(O)OP(=O)(O)O)[C@@H](O)[C@H]1O` [ATP, adenosine 5triphosphate]: the remaining activity at 1000 µM under setting [1] stood at 96%.
In the case of `NC(=O)c1ccc[n+]([C@@H]2O[C@H](COP(=O)([O-])OP(=O)(O)OC[C@H]3O[C@@H](n4cnc5c(N)ncnc54)[C@H](O)[C@@H]3O)[C@@H](O)[C@H]2O)c1` [NAD, nicotinamide adenine nucleotide], the remaining activity at 1000 µM under setting [1] came to 101%.
Turning to `Cc1ncc(COP(=O)(O)O)c(C=O)c1O` [PLP, pyridoxyl5-phosphate], the remaining activity at 1000 µM under setting [1] was determined as 106%.
As for `[Cl-].[Cl-].[Zn+2]` [ZnCl2], the “% of Control Activity” value under setting [3] was 100%.
Consider `NC(=O)C1=CN([C@@H]2O[C@H](COP(=O)(O)OP(=O)(O)OC[C@H]3O[C@@H](n4cnc5c(N)ncnc54)[C@H](O)[C@@H]3O)[C@@H](O)[C@H]2O)C=CC1` [NADH], for which, under setting [1], the remaining activity at 1000 µM worked out at 96%.
On to `O=C(O)c1cc(SSc2ccc([N+](=O)[O-])c(C(=O)O)c2)ccc1[N+](=O)[O-]` [DTNB, dithionitrobenzoate], for which, under setting [1], the remaining activity at 1000 µM came to 98%.
As to `[Cl][Mn][Cl]` [MnCl2], the “% of Control Activity” value under setting [3] came out at 84%.
Regarding `Nc1nc2c(c(=O)[nH]1)N[C@H](CNc1ccc(C(=O)N[C@@H](CCC(=O)O)C(=O)O)cc1)CN2` [THF, tetrahydrofolate], the remaining activity at 1000 µM under setting [1] was 100%.
With `c1cnc2c(c1)ccc1cccnc12` [Phenanthroline], the “effect on enzyme activity (in words)” value under setting [2] is recorded as “little or no effect”. Under setting [1], the remaining activity at 1000 µM worked out at 104%.
As for `NC(=O)C1=CN([C@@H]2O[C@H](COP(=O)(O)OP(=O)(O)OC[C@H]3O[C@@H](n4cnc5c(N)ncnc54)[C@H](OP(=O)(O)O)[C@@H]3O)[C@@H](O)[C@H]2O)C=CC1` [NADPH], the remaining activity at 1000 µM under setting [1] amounted to 99%.
For the molecule `[Cl][Ni][Cl]` [NiCl2], under setting [3], the “% of Control Activity” value is on record as 94%.
Consider `NC(=O)c1ccc[n+]([C@@H]2O[C@H](COP(=O)([O-])OP(=O)(O)OC[C@H]3O[C@@H](n4cnc5c(N)ncnc54)[C@H](OP(=O)(O)O)[C@@H]3O)[C@@H](O)[C@H]2O)c1` [NADP, nicotinamide adenine dinucleotide phosphate], for which, under setting [1], the remaining activity at 1000 µM was determined as 99%.
On to `[Cl][Fe]([Cl])[Cl]` [FeCl3], for which the “% of Control Activity” value under setting [3] turned out to be 96%.
